Experimental findings from ChEMBL document CHEMBL4017490, “Design, Synthesis, and Pharmacological Evaluation of Novel Multisubstituted Pyridin-3-amine Derivatives as Multitargeted Protein Kinase Inhibitors for the Treatment of Non-Small Cell Lung Cancer” (J Med Chem, 2017) are described below.

Molecules are shown by their SMILES.

Experiment [1] has as its target Fibroblast growth factor receptor 1 (Homo sapiens, UniProt P11362). Kind of experiment: Inhibition of recombinant human FGFR1 using poly (Glu,Tyr) 4:1 as substrate after 60 mins by ELISA.
Experiment [2] concerns the target Fibroblast growth factor receptor 2 (Homo sapiens, UniProt P21802).
Description: Inhibition of recombinant human FGFR2 using poly (Glu,Tyr) 4:1 as substrate after 60 mins by ELISA
In experiment [3] the target is Fibroblast growth factor receptor 3 (Homo sapiens, UniProt P22607). Briefly: Inhibition of recombinant human FGFR3 using poly (Glu,Tyr) 4:1 as substrate after 60 mins by ELISA. A general note: An ELISA detects its analyte on a solid surface through an enzyme-linked reagent.
Sequence of Fibroblast growth factor receptor 3 (P22607 whole entry): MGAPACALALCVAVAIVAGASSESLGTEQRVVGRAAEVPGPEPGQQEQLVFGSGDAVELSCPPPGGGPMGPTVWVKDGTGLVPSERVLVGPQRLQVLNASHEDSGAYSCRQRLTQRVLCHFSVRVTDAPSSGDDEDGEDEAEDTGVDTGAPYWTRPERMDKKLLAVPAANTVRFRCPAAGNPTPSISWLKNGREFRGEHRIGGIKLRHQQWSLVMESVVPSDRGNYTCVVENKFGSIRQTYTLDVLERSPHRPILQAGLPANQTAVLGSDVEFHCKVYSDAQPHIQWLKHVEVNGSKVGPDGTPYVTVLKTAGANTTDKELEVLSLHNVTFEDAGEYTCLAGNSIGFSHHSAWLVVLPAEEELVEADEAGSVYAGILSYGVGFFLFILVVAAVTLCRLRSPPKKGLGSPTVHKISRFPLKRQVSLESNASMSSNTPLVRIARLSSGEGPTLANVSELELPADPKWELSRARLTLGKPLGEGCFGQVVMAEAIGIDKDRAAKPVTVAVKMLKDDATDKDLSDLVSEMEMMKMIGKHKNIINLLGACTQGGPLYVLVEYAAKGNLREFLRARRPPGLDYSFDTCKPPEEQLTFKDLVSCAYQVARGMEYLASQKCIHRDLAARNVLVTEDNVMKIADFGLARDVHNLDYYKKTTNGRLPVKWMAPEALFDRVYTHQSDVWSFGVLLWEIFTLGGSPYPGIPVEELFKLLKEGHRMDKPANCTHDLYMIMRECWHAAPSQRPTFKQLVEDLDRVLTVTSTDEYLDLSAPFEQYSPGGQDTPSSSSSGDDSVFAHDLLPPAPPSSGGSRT
Experiment [4] can be described thus: Inhibition of FGFR3 mutant in human UM-UC-14 cells assessed as inhibition of cell proliferation after 72 hrs by cell counting kit-8 assay. The note with it: UMUC14, 72 h. The class given is cell-based.

Sequence of Fibroblast growth factor receptor 1 (P11362 whole entry): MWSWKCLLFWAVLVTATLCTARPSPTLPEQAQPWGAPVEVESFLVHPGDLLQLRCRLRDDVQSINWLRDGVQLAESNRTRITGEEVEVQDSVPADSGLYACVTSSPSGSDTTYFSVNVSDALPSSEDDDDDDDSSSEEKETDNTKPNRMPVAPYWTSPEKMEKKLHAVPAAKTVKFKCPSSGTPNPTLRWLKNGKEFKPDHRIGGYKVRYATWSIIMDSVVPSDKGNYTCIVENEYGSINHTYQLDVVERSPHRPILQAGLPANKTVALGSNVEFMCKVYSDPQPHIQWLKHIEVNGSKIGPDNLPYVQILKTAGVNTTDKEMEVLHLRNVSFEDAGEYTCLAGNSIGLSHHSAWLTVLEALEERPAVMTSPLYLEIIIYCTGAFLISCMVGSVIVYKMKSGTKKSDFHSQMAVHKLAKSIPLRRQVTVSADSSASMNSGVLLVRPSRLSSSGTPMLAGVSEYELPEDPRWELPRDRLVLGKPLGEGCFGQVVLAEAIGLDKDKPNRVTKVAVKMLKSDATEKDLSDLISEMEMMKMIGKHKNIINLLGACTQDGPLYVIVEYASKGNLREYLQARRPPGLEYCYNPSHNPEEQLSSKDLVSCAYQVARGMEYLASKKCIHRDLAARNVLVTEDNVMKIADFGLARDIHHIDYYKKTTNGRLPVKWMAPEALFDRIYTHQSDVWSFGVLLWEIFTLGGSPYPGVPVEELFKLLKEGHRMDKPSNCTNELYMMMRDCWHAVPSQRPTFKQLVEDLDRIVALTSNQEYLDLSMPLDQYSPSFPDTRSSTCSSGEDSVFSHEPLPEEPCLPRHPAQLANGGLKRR
Sequence of Fibroblast growth factor receptor 2 (P21802 whole entry): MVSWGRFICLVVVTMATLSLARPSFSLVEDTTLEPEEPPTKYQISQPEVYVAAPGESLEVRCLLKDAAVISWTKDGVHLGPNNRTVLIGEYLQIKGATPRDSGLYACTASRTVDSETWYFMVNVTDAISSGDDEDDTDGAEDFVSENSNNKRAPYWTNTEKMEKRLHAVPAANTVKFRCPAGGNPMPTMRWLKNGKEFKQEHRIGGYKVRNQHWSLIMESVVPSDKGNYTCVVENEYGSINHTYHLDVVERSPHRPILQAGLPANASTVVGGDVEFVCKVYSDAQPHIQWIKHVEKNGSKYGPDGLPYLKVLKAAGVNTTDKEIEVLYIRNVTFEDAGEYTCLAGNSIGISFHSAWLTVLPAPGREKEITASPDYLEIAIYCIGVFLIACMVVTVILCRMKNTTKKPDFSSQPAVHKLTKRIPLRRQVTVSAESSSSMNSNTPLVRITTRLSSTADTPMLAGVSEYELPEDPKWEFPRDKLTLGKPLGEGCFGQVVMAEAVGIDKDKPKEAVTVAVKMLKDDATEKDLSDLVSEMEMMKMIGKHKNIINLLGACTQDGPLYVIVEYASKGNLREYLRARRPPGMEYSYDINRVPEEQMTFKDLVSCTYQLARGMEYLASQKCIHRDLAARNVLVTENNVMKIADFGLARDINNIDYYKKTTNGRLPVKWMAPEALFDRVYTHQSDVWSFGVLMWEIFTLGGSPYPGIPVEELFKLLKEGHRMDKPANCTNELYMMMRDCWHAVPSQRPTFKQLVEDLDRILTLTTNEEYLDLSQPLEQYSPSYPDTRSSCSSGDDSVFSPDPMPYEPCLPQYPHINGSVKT

For `Cc1n[nH]c2ccc(-c3cc(N[C@@H](C)c4ccccc4)cnc3-c3cc(Cl)ccc3O)cc12`, the half-maximal inhibitory concentration (IC50) in experiment [1], in experiment [2] and in experiment [3] was > 1000 nM each time.

As to `Cc1n[nH]c2ccc(-c3cc(N[C@@H](CO)c4ccccc4)cnc3-c3ccccc3)cc12`, the concentration for half-maximal inhibition (IC50) (usually the point on the concentration scale where inhibition reaches its midpoint) in experiment [1] was 128 nM; in experiment [2], 26.3 nM; in experiment [3], 280 nM.

For `Cc1n[nH]c2ccc(-c3cc(N[C@@H](CO)c4ccccc4)cnc3-c3cc(C(C)C)ccc3O)cc12`, the IC50 in experiment [1], in experiment [2] and in experiment [3] was > 1000 nM in each case.

In the case of `Cc1n[nH]c2ccc(-c3cc(NCCCO)cnc3-c3cc(F)ccc3O)cc12`, the 50% inhibitory concentration (IC50) in experiment [1], in experiment [2] and in experiment [3] was > 1000 nM throughout.

On to `Cc1n[nH]c2ccc(-c3cc(N[C@@H](CO)c4ccccc4)cnc3-c3cc(F)c(F)cc3O)cc12`, for which the IC50 in experiment [1] amounted to 10.6 nM; in experiment [2], 2.8 nM; in experiment [3] it was 27.6 nM.

As to `Cc1ccc(O)c(-c2ncc(N[C@@H](CO)c3ccccc3)cc2-c2ccc3[nH]nc(C)c3c2)c1`, the IC50 in experiment [1] worked out at 32.3 nM; in experiment [2], 16.1 nM; in experiment [3] it was 22.8 nM.

`COc1cc(CCc2cc(NC(=O)c3ccc(N4C[C@@H](C)N[C@@H](C)C4)cc3)n[nH]2)cc(OC)c1` [FEXAGRATINIB]: the IC50 in experiment [4] was 27.1 nM.

As for `Cc1n[nH]c2ccc(-c3cc(N[C@@H](CO)c4ccccc4)cnc3-c3cccc4cc[nH]c34)cc12`, the IC50 amounted to 456 nM in experiment [1], 56.4 nM in experiment [2] and 561 nM in experiment [3].

On to `Cc1n[nH]c2ccc(-c3cc(N[C@@H](CO)c4ccccc4)cnc3-c3ccccc3C(N)=O)cc12`, for which the IC50 in experiment [1] was 48.8 nM; in experiment [2] it was 72.9 nM; in experiment [3], 388 nM.

For the molecule `Cc1n[nH]c2ccc(-c3cc(N[C@@H](CO)c4ccccc4)cnc3-c3cccnc3)cc12`, the 50% inhibitory concentration (IC50) in experiment [1], in experiment [2] and in experiment [3] was > 1000 nM in each case.

Turning to `Cc1n[nH]c2ncc(-c3cc(N[C@@H](CO)c4ccccc4)cnc3-c3cc(Cl)ccc3O)cc12`, the figures for the IC50 in experiment [1], in experiment [2] and in experiment [3] were 24.9 nM, 6.6 nM and 93.9 nM, respectively.

As to `Cc1n[nH]c2ccc(-c3cc(N[C@@H](CO)c4ccccc4)cnc3-c3cccc(O)c3)cc12`, the 50% inhibitory concentration (IC50) in experiment [1] was 66.5 nM; in experiment [2], 21.4 nM; in experiment [3], 434 nM.

With `Cc1n[nH]c2ccc(-c3cc(N[C@@H](CO)c4ccccc4)cnc3-c3ccccc3C(F)(F)F)cc12`, the 50% inhibitory concentration (IC50) in experiment [1], in experiment [2] and in experiment [3] was > 1000 nM throughout.

On to `CC(=O)Nc1ccc(-c2cc(N[C@@H](CO)c3ccccc3)cnc2-c2cc(Cl)ccc2O)cc1`, for which the IC50 in experiment [1], in experiment [2] and in experiment [3] was > 1000 nM throughout.

As to `Cc1n[nH]c2ccc(-c3cc(N[C@@H](CO)c4ccccc4)cnc3-c3ccsc3)cc12`, the 50% inhibitory concentration (IC50) in experiment [1] was found to be 327 nM; in experiment [2] it was 56.9 nM; in experiment [3], 970 nM.

Turning to `OC[C@H](Nc1cnc(-c2cc(Cl)ccc2O)c(-c2ccc3[nH]ccc3c2)c1)c1ccccc1`, the IC50 in experiment [1], in experiment [2] and in experiment [3] was > 1000 nM in each case.

For `Cc1n[nH]c2ccc(-c3cc(N[C@@H](CO)c4ccccc4)cnc3-c3ccccc3F)cc12`, the half-inhibitory concentration (IC50) amounted to 437 nM in experiment [1], 44.6 nM in experiment [2] and 431 nM in experiment [3].

Regarding `Cc1n[nH]c2ccc(-c3cc(NCCO)cnc3-c3cc(F)ccc3O)cc12`, the IC50 in experiment [1], in experiment [2] and in experiment [3] was > 1000 nM throughout.

As to `Cc1n[nH]c2ccc(-c3cc(N[C@@H](CO)c4ccccc4)cnc3-c3ccoc3)cc12`, the IC50 in experiment [1] is 3800 nM; in experiment [2], > 1000 nM; in experiment [3] it was > 1000 nM.

Turning to `Cc1n[nH]c2ccc(-c3cc(N[C@H](CO)c4ccccc4)cnc3-c3cc(Cl)ccc3O)cc12`, the 50% inhibitory concentration (IC50) in experiment [1], in experiment [2] and in experiment [3] was > 1000 nM throughout.

As for `Cc1n[nH]c2ccc(-c3cc(N[C@@H](CO)c4ccccc4)cnc3-c3ccccc3O)cc12`, the IC50 was found to be 14.9 nM in experiment [1], 3 nM in experiment [2] and 8 nM in experiment [3].

As for `O=C1Cc2cc(-c3cc(N[C@@H](CO)c4ccccc4)cnc3-c3cc(Cl)ccc3O)ccc2N1`, the IC50 in experiment [1] stood at 91.5 nM; in experiment [2] it was 154 nM; in experiment [3] it was 591 nM.

Take `Cc1n[nH]c2ccc(-c3cc(NC[C@H](O)c4ccccc4)cnc3-c3cc(Cl)ccc3O)cc12`: the IC50 in experiment [1] is 168 nM; in experiment [2], 71.9 nM; in experiment [3], 401 nM.

As to `Cc1n[nH]c2ccc(-c3cc(N[C@@H](CO)c4ccccc4)cnc3-c3ccco3)cc12`, the IC50 is > 1000 nM in experiment [1], 100 to 1000 nM in experiment [2] and > 1000 nM in experiment [3].

`Cc1n[nH]c2ccc(-c3cc(N[C@@H](CO)c4ccccc4)cnc3-c3cccc(F)c3O)cc12`: the IC50 was 27.9 nM in experiment [1], 2.5 nM in experiment [2] and 35.3 nM in experiment [3].

As for `Cc1n[nH]c2ccc(-c3cc(N[C@@H](CO)c4ccccc4)cnc3-c3ccccc3CO)cc12`, the concentration for half-maximal inhibition (IC50) in experiment [1] stood at 167 nM; in experiment [2], 50.5 nM; in experiment [3] it was 251 nM.

With `Cc1n[nH]c2ccc(-c3cc(N[C@@H](CO)c4ccccc4)cnc3-c3cccc4cccnc34)cc12`, the IC50 in experiment [1], in experiment [2] and in experiment [3] was > 1000 nM throughout.

As to `Cc1n[nH]c2ccc(-c3cc(N[C@@H](CO)c4ccccc4)cnc3-c3cc(F)cc(F)c3O)cc12`, the half-maximal inhibitory concentration (IC50) amounted to 63.5 nM in experiment [1], 3.4 nM in experiment [2] and 58.4 nM in experiment [3].

Consider `CC(=O)Nc1ccccc1-c1ncc(N[C@@H](CO)c2ccccc2)cc1-c1ccc2[nH]nc(C)c2c1`, for which the IC50 was found to be 418 nM in experiment [1], 250 nM in experiment [2] and 3650 nM in experiment [3].

Regarding `Cc1n[nH]c2ccc(-c3cc(N[C@@H](CO)c4ccccc4)cnc3-c3cccs3)cc12`, the concentration for half-maximal inhibition (IC50) was > 1000 nM in experiment [1], 100 to 1000 nM in experiment [2] and > 1000 nM in experiment [3].

In the case of `COc1ccccc1-c1ncc(N[C@@H](CO)c2ccccc2)cc1-c1ccc2[nH]nc(C)c2c1`, the figures for the IC50 in experiment [1], in experiment [2] and in experiment [3] were > 1000 nM, 100 to 1000 nM and > 1000 nM, respectively.
